# Test results from the supplement of paper PMC10307832.
# What was measured:
# Assay in all cases: relative viability (nuclei count vs DMSO), 5 days (fraction); higher = more cells survive
# [1] = compound: C1=CC=C2C(=C1)C=CC(=C2SSC3=C(C=CC4=CC=CC=C43)O)O [IPA-3] + CC(C)C[C@H](NC(=O)[C@H](Cc1ccccc1)NC(=O)c1cnccn1)B(O)O [Bortezomib] (partner 0.002 µM)
# Outline: (§1)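 Relative viability was taken as the ratio of nuclei in treated wells to nuclei in vehicle wells. Lung cancer cell lines in 1536-well plates received compounds by pin tool one day after seeding, either one drug alone or a fixed anchor-drug dose plus five library-drug doses (not always all listed) in √10 steps. Nuclei were counted on 4× images after 5 days of treatment, and values are medians of duplicate plates.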
# [2] = compound: Cc1ccc(-n2nc(C(C)(C)C)cc2NC(=O)Nc2ccc(OCCN3CCOCC3)c3ccccc23)cc1 [Doramapimod] + CC(C)C[C@H](NC(=O)[C@H](Cc1ccccc1)NC(=O)c1cnccn1)B(O)O [Bortezomib] (partner 0.002 µM)
# Outline: as §1
# [3] = compound: Cc1ccc(-n2nc(C(C)(C)C)cc2NC(=O)Nc2ccc(OCCN3CCOCC3)c3ccccc23)cc1 [Doramapimod] + Cc1nc(Nc2ncc(C(=O)Nc3c(C)cccc3Cl)s2)cc(N2CCN(CCO)CC2)n1 [Dasatinib] (partner 0.075 µM)
# Outline: as §1
# [4] = compound: Cc1ccc(-n2nc(C(C)(C)C)cc2NC(=O)Nc2ccc(OCCN3CCOCC3)c3ccccc23)cc1 [Doramapimod] + C[C@@H](Oc1cc(-c2cnn(C3CCNCC3)c2)cnc1N)c1c(Cl)ccc(F)c1Cl [Crizotinib] (partner 1 µM)
# Outline: as §1
Cell Line,relative viability ([1]; first compound 0.2 µM),relative viability ([1]; first compound 0.6325 µM),relative viability ([1]; first compound 2 µM),relative viability ([1]; first compound 6.325 µM),relative viability ([1]; first compound 20 µM),relative viability ([2]; first compound 0.02 µM),relative viability ([2]; first compound 0.06325 µM),relative viability ([2]; first compound 0.2 µM),relative viability ([2]; first compound 0.6325 µM),relative viability ([2]; first compound 2 µM),relative viability ([3]; first compound 0.02 µM),relative viability ([3]; first compound 0.06325 µM),relative viability ([3]; first compound 0.2 µM),relative viability ([3]; first compound 0.6325 µM),relative viability ([3]; first compound 2 µM),relative viability ([4]; first compound 0.02 µM),relative viability ([4]; first compound 0.06325 µM),relative viability ([4]; first compound 0.2 µM),relative viability ([4]; first compound 0.6325 µM),relative viability ([4]; first compound 2 µM)
NCI-H1792,1.1,0.928,1.08,0.895,1.16,0.946,0.952,0.948,1.05,0.831,0.727,0.645,0.713,0.645,0.654,0.762,1.06,1.07,1.04,0.971
NCI-H596,1.33,1.12,1.18,0.914,1.17,0.994,1.13,1.21,1.24,1.02,0.524,0.643,0.538,0.738,0.52,0.95,0.95,1.02,1.01,1
RERF-LC-KJ,1.33,1.36,1.12,1.25,1.18,1.19,1.05,1.29,1.07,1.04,0.88,0.709,0.729,0.769,0.768,0.88,0.888,0.826,0.789,0.823
NCI-H322M,1.31,1.21,1.19,1.32,1.23,1.26,1.43,1.18,1.26,1.35,0.276,0.28,0.259,0.262,0.24,0.899,0.949,1.02,1.02,0.924
COR-L 105,0.856,0.885,0.7,0.879,0.603,0.848,0.772,0.959,0.807,0.779,0.316,0.305,0.302,0.376,0.367,0.849,0.915,0.798,0.897,0.75
NCI-H1993,1.04,1.14,1.14,1.1,1.21,1.3,0.993,1.03,1.53,0.97,0.885,0.638,0.505,0.705,0.559,0.739,0.788,0.907,0.919,0.775
NCI-H1437,1.09,0.467,0.443,0.438,0.587,0.586,0.643,0.551,0.464,0.495,0.466,0.459,0.437,0.596,0.323,0.897,0.943,0.868,1,0.915
NCI-H838,1.89,0.847,0.667,1.03,0.815,1.05,0.965,1.01,1.22,0.73,0.279,0.327,0.315,0.326,0.298,0.847,0.807,0.872,1.01,0.799
NCI-H1944,–,–,–,–,–,–,–,–,–,–,0.213,0.231,0.193,0.232,0.216,1.09,0.993,1.14,1.16,1.11
EBC-1,0.488,0.548,0.546,0.546,0.581,0.549,0.563,0.473,0.684,0.549,–,–,–,–,–,0.161,0.196,0.162,0.184,0.188
SK-MES-1,–,–,–,–,–,–,–,–,–,–,0.374,0.406,0.413,0.41,0.33,1.01,0.977,0.933,0.917,0.887
SW 900,–,–,–,–,–,–,–,–,–,–,0.654,0.548,0.714,0.813,0.553,–,–,–,–,–
NCI-H1299,0.995,1.01,0.996,0.996,1,1.03,1.09,1.04,1.06,1.05,–,–,–,–,–,0.963,0.945,0.936,1,0.902
A549,–,–,–,–,–,–,–,–,–,–,–,–,–,–,–,0.763,0.747,0.771,0.743,0.762
NCI-H1793,–,–,–,–,–,–,–,–,–,–,0.335,0.379,0.368,0.36,0.344,–,–,–,–,–
NCI-H1623,–,–,–,–,–,–,–,–,–,–,0.534,0.522,0.497,0.495,0.521,–,–,–,–,–
NCI-H1703,0.265,0.288,0.463,0.579,0.445,0.305,0.208,0.226,0.365,0.218,–,–,–,–,–,0.614,0.576,0.519,0.783,0.493
NCI-H2170,–,–,–,–,–,–,–,–,–,–,0.614,0.616,0.7,0.896,0.594,1.12,1.2,1.09,1.22,1.14
NCI-H1395,–,–,–,–,–,–,–,–,–,–,0.413,0.433,0.401,0.546,0.363,–,–,–,–,–
HCC-44,0.918,0.852,0.897,0.894,0.835,0.941,1.01,0.814,0.86,0.833,–,–,–,–,–,0.884,0.856,0.755,0.771,0.772
NCI-H2342,–,–,–,–,–,–,–,–,–,–,0.277,0.309,0.319,0.333,0.278,–,–,–,–,–
Calu-6,1.02,1.04,0.895,0.959,0.837,1.05,1.03,1.02,1.11,1.03,–,–,–,–,–,0.823,0.815,0.865,0.866,0.745
LK-2,–,–,–,–,–,–,–,–,–,–,0.241,0.278,0.202,0.213,0.22,0.246,0.266,0.207,0.207,0.205
